Measured values as given in patent US5079241A, “Cephalosporin derivatives and pharmaceutical compositions in which they are present” (Sanofi, priority 1987, dated 1992).
Values after ≈ are worked out from the molar mass of the structure shown. Where two headings read alike, the source gives them in different places.

Tests used:
[1] = pharmacokinetic behavior in baboons, 20 mg/kg (Tables 4 and 6); format: in vivo; conditions: baboon; for Tmax / Cmax / half-life / AUC(0-t) at 6 h / concentration at 6 h / concentration at 10 min / concentration at 20 min / concentration at 0.5 h / concentration at 0.75 h / concentration at 1 h / concentration at 1.5 h / concentration at 2 h / concentration at 3 h / concentration at 4 h / concentration at 5 h / concentration at 5.5 h: plasma; for Cmax: read-out: Max plasma concentration; for half-life: read-out: t1/2 β; for AUC(0-t) at 6 h: trapezium method; for concentration at 6 h / concentration at 10 min / concentration at 20 min / concentration at 0.5 h / concentration at 0.75 h / concentration at 1 h / concentration at 1.5 h / concentration at 2 h / concentration at 3 h / concentration at 4 h / concentration at 5 h / concentration at 5.5 h / dose excreted at 6 h: 20 mg/kg; for concentration at 0.5 h: 30 minutes; for concentration at 0.75 h: 45 minutes; for concentration at 1 h: 60 minutes; for concentration at 1.5 h: 90 minutes; for concentration at 2 h: 120 minutes; for concentration at 3 h: 180 minutes; for concentration at 4 h: 240 minutes; for concentration at 5 h: 300 minutes; for concentration at 5.5 h: 330 minutes; for dose excreted at 6 h: urine, 6 h (Table 6), read-out: Excretion in the urine
Experimental: Furthermore, the pharmacokinetic behavior of the products according to the invention was studied in baboons after administration at a dose of 20 mg/kg by intramuscular injection or intravenous injection.
Blood samples taken at various times after administration are used to determine the plasma concentration of the product studied by microbiological assay.
It is thus possible to construct the curve showing the plasma concentration as a function of time, and to determine different pharmacokinetic parameters of the compound studied:
the elimination half-life (t1/2 β) is calculated by the formula [formula] in which β represents the elimination gradient or slope;
the area under the curve (AUC) is determined by the trapezium method.
The plasma concentrations obtained with various products of the invention are collated in Tables 4 and 5. They are expressed in μg/ml.

[2] = protein binding by comparing two standard scales in baboon plasma and phosphate buffer; format: in vitro ADME; conditions: baboon plasma vs phosphate buffer (pH 7, 0.03M)
Text: Furthermore, the protein binding is obtained by comparing two standard scales, one being prepared in baboon plasma and the other in phosphate buffer (pH 7, 0.03M).

[3] = test system: Escherichia coli C1/Col E1::Tn3; test: bacteriostatic action in vitro by the dilution method (MIC); format: cell-based; conditions: read-out: minimum inhibitory concentrations (MIC)
Experimental: (§1) The bacteriostatic action was determined in vitro by the dilution method. The study was carried out on both Gram-positive strains and Gram-negative strains.
(§2) The results for various products according to the invention, expressed as minimum inhibitory concentrations (MIC - μg/ml), are collated in Table 3.

[4] = test system: Escherichia coli SOL RL 90; test: as above; format: cell-based; conditions: SOLRL90, read-out: minimum inhibitory concentrations (MIC)
Experimental: as §1, §2

[5] = test system: Klebsiella pneumoniae R30; test: as above; format: cell-based; conditions: read-out: minimum inhibitory concentrations (MIC)
Experimental: as §1, §2

[6] = test system: Staph. aureus Smith; test: as above; format: cell-based; conditions: Staphylococcus aureus, read-out: minimum inhibitory concentrations (MIC)
Experimental: as §1, §2

[7] = test system: Proteus vulgaris GN 76/C-1; test: as above; format: cell-based; conditions: GN76, read-out: minimum inhibitory concentrations (MIC)
Experimental: as §1, §2

[8] = test system: Pseudomonas aeruginosa NCTC 8203; test: as above; format: cell-based; conditions: NCTC8203, read-out: minimum inhibitory concentrations (MIC)
Experimental: as §1, §2

[9] = test system: Providencia 155; test: as above; format: cell-based; conditions: read-out: minimum inhibitory concentrations (MIC)
Experimental: as §1, §2

[10] = 20 mg/kg (Table 6), read-out: Plasma concentration at 6 h
[11] = 360 minutes, read-out: plasma concentration

| Compound | Tmax ([1]; 20 mg/kg (Table 6)) | Cmax ([1]; 20 mg/kg (Table 6)) | AUC(0-t) at 6 h ([1]; 20 mg/kg (Table 6)) | concentration at 6 h [1, 10] | concentration at 10 min [1] | concentration at 20 min [1] | concentration at 0.5 h [1] | concentration at 0.75 h [1] | concentration at 1 h [1] | concentration at 1.5 h [1] | concentration at 2 h [1] | concentration at 3 h [1] | concentration at 4 h [1] | concentration at 5 h [1] | concentration at 5.5 h [1] | concentration at 6 h [1, 11] | dose excreted at 6 h [1] | fraction unbound [2] | MIC [3] | MIC [4] | further results |
| --- | --- | --- | --- | --- | --- | --- | --- | --- | --- | --- | --- | --- | --- | --- | --- | --- | --- | --- | --- | --- | --- |
| CC(C)(ON=C(C(=O)NC1C(=O)N2C(C(=O)O)=C(COC(=O)c3ccc(NC(=O)CN)cc3)CSC12)c1csc(N)n1)C(=O)O (centres unmarked) [Product A, reference compound] | 0.75 h | 69.5 µg/mL | 284 µg·h/mL | 17.3 µg/mL | 20.8 µg/mL | 36.8 µg/mL | 44.4 µg/mL | 59.3 µg/mL | 60 µg/mL | 55.5 µg/mL | 53.3 µg/mL | 40 µg/mL | 36.2 µg/mL | 27.2 µg/mL | 23.7 µg/mL | 17.3 µg/mL | 23% | 0.55 | – | – | half-life ([1]; 20 mg/kg (Table 6)): 3.25 h |
| CC(C)(ON=C(C(=O)NC1C(=O)N2C(C(=O)O)=C(COC(=O)c3ccc(NC(=O)CCN)cc3)CSC12)c1csc(N)n1)C(=O)O (centres unmarked) [Product B, reference compound] | 1.5 h | 24.1 µg/mL | 87.9 µg·h/mL | 4.8 µg/mL | 8.5 µg/mL | 16.4 µg/mL | 16.9 µg/mL | 17.6 µg/mL | 20.7 µg/mL | 24.1 µg/mL | 20.7 µg/mL | 17.6 µg/mL | 12.5 µg/mL | 8.3 µg/mL | 6.8 µg/mL | 4.8 µg/mL | 18% | 0.52 | – | – | half-life ([1]; 20 mg/kg (Table 6)): 1.65 h |
| CC(C)(O/N=C(\C(=O)NC1C(=O)N2C(C(=O)O)=C(COC(=O)c3ccc(NC(=O)CN)c(O)c3)CSC12)c1csc(N)n1)C(=O)O (stereo not drawn) [SR 43753, Bis-trifluoroacetate of 7-2-(2-aminothiazol-4-yl)-2-(2-carboxyprop-2-yloxyimino)acetamido]-3-[[4-(2-aminoacetyl)amino-3-hydroxybenzoyloxymethyl]-3-cephem-4-carboxylic acid, syn isomer] | 2 h | 151 µg/mL | 703 µg·h/mL | 80.9 µg/mL | 36.8 µg/mL | 69.1 µg/mL | 95.2 µg/mL | 129 µg/mL | 139 µg/mL | 146 µg/mL | 151 µg/mL | 126 µg/mL | 121 µg/mL | 113 µg/mL | 97.6 µg/mL | 80.9 µg/mL | 18% | 0.16 | 0.12 µg/mL (≈ 0.177 µM) | 2 µg/mL (≈ 2.95 µM) | MIC [5]: 1 µg/mL (≈ 1.48 µM); MIC [6]: 2 µg/mL (≈ 2.95 µM); MIC [7]: 0.12 µg/mL (≈ 0.177 µM); MIC [8]: 2 µg/mL (≈ 2.95 µM); MIC [9]: 1 µg/mL (≈ 1.48 µM) |
| CC(C)(O/N=C(\C(=O)NC1C(=O)N2C(C(=O)O)=C(COC(=O)c3ccc(NC(=O)CCN)c(O)c3)CSC12)c1csc(N)n1)C(=O)O (centres unmarked) [SR 43904] | 1.5 h | 94.1 µg/mL | 348 µg·h/mL | 34.3 µg/mL | 12.6 µg/mL | – | 52.4 µg/mL | 73 µg/mL | 76.1 µg/mL | 94.1 µg/mL | 76.1 µg/mL | 59.7 µg/mL | 57.3 µg/mL | 53.4 µg/mL | 39.9 µg/mL | 34.3 µg/mL | 17% | 0.29 | 0.25 µg/mL (≈ 0.361 µM) | 2 µg/mL (≈ 2.89 µM) | half-life ([1]; 20 mg/kg (Table 6)): 4.42 h; MIC [5]: 1 µg/mL (≈ 1.45 µM); MIC [6]: 4 µg/mL (≈ 5.78 µM); MIC [7]: 0.25 µg/mL (≈ 0.361 µM); MIC [8]: 1 µg/mL (≈ 1.45 µM); MIC [9]: 1 µg/mL (≈ 1.45 µM) |
| CC(C)(O/N=C(\C(=O)NC1C(=O)N2C(C(=O)O)=C(COC(=O)c3ccc(NC(=O)[C@@H](N)CCCN)c(O)c3)CSC12)c1csc(N)n1)C(=O)O (some centres unmarked) [SR 44128] | 2 h | 195 µg/mL | 898 µg·h/mL | 104 µg/mL | 62.9 µg/mL | 115 µg/mL | 135 µg/mL | 177 µg/mL | 188 µg/mL | 188 µg/mL | 195 µg/mL | 169 µg/mL | 142 µg/mL | 123 µg/mL | – | 105 µg/mL | 72% | 0.16 | 0.12 µg/mL (≈ 0.163 µM) | 2 µg/mL (≈ 2.72 µM) | MIC [5]: 1 µg/mL (≈ 1.36 µM); MIC [6]: 8 µg/mL (≈ 10.9 µM); MIC [7]: 0.12 µg/mL (≈ 0.163 µM); MIC [8]: 2 µg/mL (≈ 2.72 µM); MIC [9]: 1 µg/mL (≈ 1.36 µM) |
| CC(C)(O/N=C(\C(=O)NC1C(=O)N2C(C(=O)O)=C(COC(=O)c3ccc(NC(=O)C(N)CCN)c(O)c3)CSC12)c1csc(N)n1)C(=O)O (centres unmarked) [SR 44130] | 1.5 h | 143 µg/mL | 707 µg·h/mL | 90.4 µg/mL | 39.1 µg/mL | 60.9 µg/mL | 81.9 µg/mL | 105 µg/mL | 122 µg/mL | 143 µg/mL | 142 µg/mL | 138 µg/mL | 135 µg/mL | 109 µg/mL | 93.8 µg/mL | 90.4 µg/mL | 37% | 0.08 | 0.25 µg/mL (≈ 0.347 µM) | 2 µg/mL (≈ 2.77 µM) | MIC [5]: 1 µg/mL (≈ 1.39 µM); MIC [6]: 8 µg/mL (≈ 11.1 µM); MIC [7]: 0.12 µg/mL (≈ 0.166 µM); MIC [8]: 2 µg/mL (≈ 2.77 µM); MIC [9]: 1 µg/mL (≈ 1.39 µM) |
